Each structure is given as a SMILES string.

Common to all, as to format: cell-based
One experiment has as its target T1, CDK6 (Homo sapiens, UniProt Q00534).
T1 construct: endogenous in cells
As to the kind of experiment: CDK6 degradation (DC50, Dmax).

Experiment [1] has as its system mantle cell lymphoma cell (Mino or JeKo-1). As to the kind of experiment: Antiproliferative effect, MTS cell viability assay. As to conditions: 72 h, mantle cell lymphoma cell (Mino or JeKo-1), MTS assay, read-out: IC50 (anti-proliferation). The essentials:
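MTS read-out (formazan absorbance at 490 nm) after 72 h exposure of Mino cells to 0–1 μM compound (0.0001, 0.001, 0.01, 0.1, 1 μM). Palbociclib and abemaciclib served as positive controls.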

Another experiment concerns the target T2, CDK4 (Homo sapiens, UniProt P11802).
T2 construct: endogenous in cells
As to the kind of experiment: CDK4 degradation (DC50, Dmax).

T2 sequence (P11802 whole entry): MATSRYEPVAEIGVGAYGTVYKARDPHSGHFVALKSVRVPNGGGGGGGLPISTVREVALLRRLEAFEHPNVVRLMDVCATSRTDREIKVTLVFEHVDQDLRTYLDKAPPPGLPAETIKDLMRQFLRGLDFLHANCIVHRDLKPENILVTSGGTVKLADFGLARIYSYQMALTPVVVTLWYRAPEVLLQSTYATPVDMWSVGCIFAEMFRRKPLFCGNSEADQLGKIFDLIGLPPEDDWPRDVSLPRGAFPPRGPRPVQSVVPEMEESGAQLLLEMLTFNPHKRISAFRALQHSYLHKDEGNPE
T1 sequence (Q00534 whole entry): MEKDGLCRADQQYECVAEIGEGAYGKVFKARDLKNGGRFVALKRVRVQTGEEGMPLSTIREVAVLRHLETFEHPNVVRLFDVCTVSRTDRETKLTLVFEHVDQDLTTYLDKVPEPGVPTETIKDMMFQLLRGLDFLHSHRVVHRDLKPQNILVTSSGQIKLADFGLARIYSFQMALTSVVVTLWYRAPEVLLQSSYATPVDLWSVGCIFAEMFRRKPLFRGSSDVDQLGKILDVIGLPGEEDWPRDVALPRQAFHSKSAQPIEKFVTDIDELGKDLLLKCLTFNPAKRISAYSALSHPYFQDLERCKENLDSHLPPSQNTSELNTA

On to `Cc1nc2c(F)cc(-c3nc(Nc4ccc(CC5CCN(CC6CN(c7ccc(C(=O)NC8CCC(=O)NC8=O)cc7)C6)CC5)cn4)ncc3F)cc2n1C(C)C` (stereo not drawn) [Compound 141, N-(2,6-dioxopiperidin-3-yl)-4-(3-((4-((6-{(5-fluoro-4-(4-fluoro-1-isopropyl-2-methyl-1H-benzo[d]imidazol-6-yl)pyrimidin-2-yl)amino)pyridin-3-yl)methyl)piperidin-1-yl)methyl)azetidin-1-yl)benzamide], for which the DC50 at CDK6 and at CDK4 was 50 to 200 nM in each case. In addition, the greatest degradation seen (Dmax) at CDK6 and at CDK4 was greater than 80% each time. Further, in experiment [1], the IC50 is less than 50 nM.
For `Cc1nc2c(F)cc(-c3nc(Nc4ccc(CC5CCN(CC6CN(c7ccc(NC8CCC(=O)NC8=O)cc7)C6)CC5)cn4)ncc3F)cc2n1C(C)C` (stereo not drawn) [Compound 142, 3-((4-(3-((4-((6-((5-fluoro-4-(4-fluoro-1-isopropyl-2-methyl-1H-benzo[d]imidazol-6-yl)pyrimidin-2-yl)amino)pyridin-3-yl)methyl)piperidin-1-yl)methyl)azetidin-1-yl)phenyl)amino) piperidine-2,6-dione], at CDK6, the 50% degradation concentration (DC50) (usually the concentration giving 50% degradation) was 50 to 200 nM and the Dmax (usually the largest share of the target that was removed) was greater than 80%. Also, the IC50 in experiment [1] is less than 50 nM. At CDK4, this molecule yielded a 50% degradation concentration (DC50) of 50 to 200 nM and a Dmax greater than 80%.
As for `Cc1nc2c(F)cc(-c3nc(Nc4ccc(CC5CCN(C(=O)C6CN(c7ccc8c(c7)C(=O)N(C7CCC(=O)NC7=O)C8=O)C6)CC5)cn4)ncc3F)cc2n1C(C)C` (stereo not drawn) [Compound 143, 2-(2,6-dioxopiperidin-3-yl)-5-(3-(4-((6-((5-fluoro-4-(4-fluoro-1-isopropyl-2-methyl-1H-benzo[d]imidazol-6-yl)pyrimidin-2-yl)amino)pyridin-3-yl)methyl)piperidine-1-carbonyl)azetidin-1-yl)isoindoline-1,3-dione], the 50% degradation concentration (DC50) on CDK6 and on CDK4 was 50 to 200 nM throughout. The Dmax was greater than 60% on CDK6 and greater than 80% on CDK4. Further, the IC50 in experiment [1] was less than 50 nM.
Consider `Cc1nc2c(F)cc(-c3nc(Nc4ccc(CC5CCN(C(=O)C6CN(c7ccc8c(c7)CN(C7CCC(=O)NC7=O)C8=O)C6)CC5)cn4)ncc3F)cc2n1C(C)C` (stereo not drawn) [Compound 144, 3-(5-(3-(4-((6-((5-fluoro-4-(4-fluoro-1-isopropyl-2-methyl-1H-benzo[d]imidazol-6-yl)pyrimidin-2-yl)amino)pyridin-3-yl)methyl)piperidine-1-carbonyl)azetidin-1-yl)-1-oxoisoindolin-2-yl) piperidine-2,6-dione], for which the DC50 at CDK6 and on CDK4 was 50 to 200 nM each time. Moreover, the Dmax on CDK6 and at CDK4 was greater than 80% each time. Also, the IC50 in experiment [1] was less than 50 nM.
With `Cc1nc2c(F)cc(-c3nc(Nc4ccc(CC5CCN(C(=O)C6CN(c7ccc(C(=O)NC8CCC(=O)NC8=O)cc7)C6)CC5)cn4)ncc3F)cc2n1C(C)C` (stereo not drawn) [Compound 145, N-(2,6-dioxopiperidin-3-yl)-4-(3-(4-((6-((5-fluoro-4-(4-fluoro-1-isopropyl-2-methyl-1H-benzo[d]imidazol-6-yl)pyrimidin-2-yl)amino)pyridin-3-yl)methyl)piperidine-1-carbonyl)azetidin-1-yl)benzamide], the DC50 on CDK6 and at CDK4 was 50 to 200 nM in each case. Further, the greatest degradation seen (Dmax) on CDK6 and at CDK4 was greater than 60% throughout. The IC50 in experiment [1] is less than 50 nM.
On to `Cc1nc2c(F)cc(-c3nc(Nc4ccc(CC5CCN(C(=O)C6CN(c7ccc(NC8CCC(=O)NC8=O)cc7)C6)CC5)cn4)ncc3F)cc2n1C(C)C` (stereo not drawn) [Compound 146, 3-((4-(3-(4-((6-((5-fluoro-4-(4-fluoro-1-isopropyl-2-methyl-1H-benzo[d]imidazol-6-yl)pyrimidin-2-yl)amino)pyridin-3-yl)methyl)piperidine-1-carbonyl)azetidin-1-yl)phenyl)amino) piperidine-2,6-dione], for which, on CDK6, the DC50 is 50 to 200 nM and the Dmax was greater than 60%. In addition, the IC50 in experiment [1] fell in the range of 50 to 200 nM. Further, at CDK4, the DC50 was in the range of 50 to 200 nM and the Dmax is greater than 50%.
As for `Cc1nc2c(F)cc(-c3nc(Nc4ccc(CN5CCN(C6CN(c7ccc8c(c7)C(=O)N(C7CCC(=O)NC7=O)C8=O)C6)CC5)cn4)ncc3F)cc2n1C(C)C` (stereo not drawn) [Compound 147, 2-(2,6-dioxopiperidin-3-yl)-5-(3-(4-((6-((5-fluoro-4-(4-fluoro-1-isopropyl-2-methyl-1H-benzo[d]imidazol-6-yl)pyrimidin-2-yl)amino)pyridin-3-yl)methyl)piperazin-1-yl)azetidin-1-yl)isoindoline-1,3-dione], on CDK6, the DC50 was in the range of 50 to 200 nM and the Dmax is greater than 60%. Also, in experiment [1], the IC50 fell in the range of 50 to 200 nM. At CDK4, this molecule registered a 50% degradation concentration (DC50) of less than 50 nM and a Dmax greater than 60%.
On CDK6, `Cc1nc2c(F)cc(-c3nc(Nc4ccc(CC5CCN(C6CN(c7ccc8c(c7)C(=O)N(C7CCC(=O)NC7=O)C8=O)C6)CC5)cn4)ncc3F)cc2n1C(C)C` (stereo not drawn) [Compound 148, 2-(2,6-dioxopiperidin-3-yl)-5-(3-(4-((6-((5-fluoro-4-(4-fluoro-1-isopropyl-2-methyl-1H-benzo[d]imidazol-6-yl)pyrimidin-2-yl)amino)pyridin-3-yl)methyl)piperidin-1-yl)azetidin-1-yl)isoindoline-1,3-dione] registered a DC50 of 50 to 200 nM and a Dmax greater than 60%. Also, the IC50 in experiment [1] was 50 to 200 nM. At CDK4, this molecule came in with a DC50 of less than 50 nM and a maximal degradation (Dmax) greater than 60%.
As to `Cc1nc2c(F)cc(-c3nc(Nc4ccc(CN5CCN(CC6CCN(c7ccc8c(c7)C(=O)N(C7CCC(=O)NC7=O)C8=O)CC6)CC5)cn4)ncc3F)cc2n1C(C)C` (stereo not drawn) [Compound 149, 2-(2,6-dioxopiperidin-3-yl)-5-(4-((4-((6-((5-fluoro-4-(4-fluoro-1-isopropyl-2-methyl-1H-benzo[d]imidazol-6-yl)pyrimidin-2-yl)amino)pyridin-3-yl)methyl)piperazin-1-yl)methyl)piperidin-1-yl)isoindoline-1,3-dione], the half-maximal degradation concentration (DC50) on CDK6 and at CDK4 was less than 50 nM throughout. Also, the Dmax on CDK6 and at CDK4 was greater than 80% in each case. Also, the IC50 in experiment [1] is less than 50 nM.
For the molecule `Cc1nc2c(F)cc(-c3nc(Nc4ccc(CN5CCN(C6CCN(c7ccc(C(=O)NC8CCC(=O)NC8=O)cc7)CC6)CC5)cn4)ncc3F)cc2n1C(C)C` (stereo not drawn) [Compound 150, N-(2,6-dioxopiperidin-3-yl)-4-(4-(4-((6-((5-fluoro-4-(4-fluoro-1-isopropyl-2-methyl-1H-benzo[d]imidazol-6-yl)pyrimidin-2-yl)amino)pyridin-3-yl)methyl)piperazin-1-yl)piperidin-1-yl)benzamide], at CDK6, the 50% degradation concentration (DC50) was less than 50 nM and the Dmax is greater than 80%. Further, the IC50 in experiment [1] was less than 50 nM. On CDK4, the DC50 is less than 50 nM and the greatest degradation seen (Dmax) was greater than 80%.
Consider `Cc1nc2c(F)cc(-c3nc(Nc4ccc(CN5CCN(CC6CCN(c7ccc(C(=O)NC8CCC(=O)NC8=O)cc7)CC6)CC5)cn4)ncc3F)cc2n1C(C)C` (stereo not drawn) [Compound 151, N-(2,6-dioxopiperidin-3-yl)-4-(4-((4-((6-((5-fluoro-4-(4-fluoro-1-isopropyl-2-methyl-1H-benzo[d]imidazol-6-yl)pyrimidin-2-yl)amino)pyridin-3-yl)methyl)piperazin-1-yl)methyl)piperidin-1-yl)benzamide], for which, at CDK6, the DC50 lay in the range of 50 to 200 nM and the Dmax was greater than 60%. For the same molecule, the IC50 in experiment [1] is less than 50 nM. On CDK4, this molecule had a DC50 of 50 to 200 nM and a maximal degradation (Dmax) greater than 80%.
Take `Cc1nc2c(F)cc(-c3nc(Nc4ccc(CN5CCN(CC6CCN(c7ccc(NC8CCC(=O)NC8=O)cc7)CC6)CC5)cn4)ncc3F)cc2n1C(C)C` (stereo not drawn) [Compound 152, 3-((4-(4-((4-((6-((5-fluoro-4-(4-fluoro-1-isopropyl-2-methyl-1H-benzo[d]imidazol-6-yl)pyrimidin-2-yl)amino)pyridin-3-yl)methyl)piperazin-1-yl)methyl)piperidin-1-yl)phenyl)amino) piperidine-2,6-dione]: the half-maximal degradation concentration (DC50) at CDK6 was 50 to 200 nM; on CDK4 it was less than 50 nM. Besides, the Dmax on CDK6 and at CDK4 was greater than 80% each time. The IC50 in experiment [1] was less than 50 nM.
Consider `Cc1nc2c(F)cc(-c3nc(Nc4ccc(CN5CCN(C(=O)C6CCN(c7ccc8c(c7)CN(C7CCC(=O)NC7=O)C8=O)CC6)CC5)cn4)ncc3F)cc2n1C(C)C` (stereo not drawn) [Compound 154], for which the values for the DC50 on CDK6 and on CDK4 were greater than 200 nM and 50 to 200 nM, respectively. In addition, the Dmax at CDK6 and on CDK4 was greater than 60% throughout. Further, the IC50 in experiment [1] was 50 to 200 nM.
In the case of `Cc1nc2c(F)cc(-c3nc(Nc4ccc(CN5CCN(C(=O)C6CCN(c7ccc(C(=O)NC8CCC(=O)NC8=O)cc7)CC6)CC5)cn4)ncc3F)cc2n1C(C)C` (stereo not drawn) [Compound 155, N-(2,6-dioxopiperidin-3-yl)-4-(4-(4-((6-((5-fluoro-4-(4-fluoro-1-isopropyl-2-methyl-1H-benzo[d]imidazol-6-yl)pyrimidin-2-yl)amino)pyridin-3-yl)methyl)piperazine-1-carbonyl)piperidin-1-yl)benzamide], on CDK6, the DC50 was greater than 200 nM and the Dmax is greater than 50%. Further, the IC50 in experiment [1] was 50 to 200 nM. Moreover, at CDK4, the DC50 fell in the range of 50 to 200 nM and the Dmax is greater than 50%.
As to `Cc1nc2c(F)cc(-c3nc(Nc4ccc(CN5CCN(C(=O)C6CCN(c7ccc(NC8CCC(=O)NC8=O)cc7)CC6)CC5)cn4)ncc3F)cc2n1C(C)C` (stereo not drawn) [Compound 156, 3-((4-(4-(4-((6-((5-fluoro-4-(4-fluoro-1-isopropyl-2-methyl-1H-benzo[d]imidazol-6-yl)pyrimidin-2-yl)amino)pyridin-3-yl)methyl)piperazine-1-carbonyl)piperidin-1-yl)phenyl)amino) piperidine-2,6-dione], at CDK6, the 50% degradation concentration (DC50) was 50 to 200 nM and the Dmax is greater than 80%. Further, the IC50 in experiment [1] was 50 to 200 nM. On CDK4, this molecule had a 50% degradation concentration (DC50) of 50 to 200 nM and a Dmax greater than 60%.

For the origin of these results see patent publication US20230295118A1 (EnhancedBio Inc., priority 2022, published 2023).
